This passage reports IC50 results from PMC7093421, “Perfluorooctane sulfonate (PFOS) and perfluorooctanoate (PFOA) acutely affect human α1β2γ2L GABAA receptor and spontaneous neuronal network function in vitro” (Scientific Reports, 2020).

Each structure is given as a SMILES string.

The target in the assay is T1, human α1β2γ2L GABAA receptor (Homo sapiens, UniProt P14867+P18507+P47870).
T1 construct: gene GABRA1; α1β2γ2L receptor expressed in Xenopus laevis oocytes; with GABRB2 (β2) and GABRG2 (γ2L) subunits
T1 sequence (P14867 28-456): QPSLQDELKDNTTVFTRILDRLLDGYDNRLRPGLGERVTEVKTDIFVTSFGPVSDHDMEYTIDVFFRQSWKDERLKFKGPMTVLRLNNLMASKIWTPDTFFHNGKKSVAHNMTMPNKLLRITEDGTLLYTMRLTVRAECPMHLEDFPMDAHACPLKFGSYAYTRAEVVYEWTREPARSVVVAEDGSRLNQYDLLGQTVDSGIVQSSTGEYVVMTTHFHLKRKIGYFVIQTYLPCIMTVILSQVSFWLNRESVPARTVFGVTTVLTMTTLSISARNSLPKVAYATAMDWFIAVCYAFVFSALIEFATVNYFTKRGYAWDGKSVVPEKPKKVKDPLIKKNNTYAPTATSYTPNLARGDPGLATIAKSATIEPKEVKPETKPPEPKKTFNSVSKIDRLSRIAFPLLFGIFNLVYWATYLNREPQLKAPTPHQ
T1 sequence (P47870 26-512): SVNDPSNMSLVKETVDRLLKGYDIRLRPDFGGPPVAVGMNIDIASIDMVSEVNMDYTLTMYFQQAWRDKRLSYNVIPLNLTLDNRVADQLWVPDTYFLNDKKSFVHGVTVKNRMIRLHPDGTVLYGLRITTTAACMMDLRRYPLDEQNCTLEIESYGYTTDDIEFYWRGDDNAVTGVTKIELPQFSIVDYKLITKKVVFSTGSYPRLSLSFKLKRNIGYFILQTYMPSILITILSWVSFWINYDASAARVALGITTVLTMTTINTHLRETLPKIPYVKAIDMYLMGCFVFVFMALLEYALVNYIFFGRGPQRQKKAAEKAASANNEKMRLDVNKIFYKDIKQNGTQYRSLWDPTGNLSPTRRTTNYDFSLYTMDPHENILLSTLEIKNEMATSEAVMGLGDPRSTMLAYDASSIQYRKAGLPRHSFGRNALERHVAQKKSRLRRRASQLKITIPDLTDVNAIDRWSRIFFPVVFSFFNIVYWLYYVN
T1 sequence (P18507 40-475): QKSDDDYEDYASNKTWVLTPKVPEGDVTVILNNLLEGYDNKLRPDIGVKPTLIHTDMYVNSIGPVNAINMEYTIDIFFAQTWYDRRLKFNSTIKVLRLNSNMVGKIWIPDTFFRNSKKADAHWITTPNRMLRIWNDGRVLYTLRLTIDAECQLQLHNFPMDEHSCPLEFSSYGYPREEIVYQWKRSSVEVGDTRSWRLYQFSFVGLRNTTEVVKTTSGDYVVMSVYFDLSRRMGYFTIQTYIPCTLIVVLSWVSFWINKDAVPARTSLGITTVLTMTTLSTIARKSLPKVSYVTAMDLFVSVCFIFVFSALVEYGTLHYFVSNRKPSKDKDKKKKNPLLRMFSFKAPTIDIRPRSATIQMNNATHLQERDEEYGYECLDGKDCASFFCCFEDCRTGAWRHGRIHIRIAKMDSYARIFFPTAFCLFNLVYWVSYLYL
The assay can be described thus: two-electrode voltage clamp in Xenopus oocytes, inhibition of GABA-evoked current ([…] GABA). In kind it is cell-based. For orientation: In two-electrode clamp one electrode senses voltage and the other passes current.

Consider `O=C(O)C(F)(F)C(F)(F)C(F)(F)C(F)(F)C(F)(F)C(F)(F)C(F)(F)F` [PFOA], for which the IC50 (commonly the concentration needed to halve the response being measured) was determined as 6.7 µM.
The same measure for `O=S(=O)(O)C(F)(F)C(F)(F)C(F)(F)C(F)(F)C(F)(F)C(F)(F)C(F)(F)C(F)(F)F` [PFOS]: 0.18 µM.
